The target of one assay is T1, RAS G12V (Homo sapiens, UniProt P01116, G12V).
T1 construct: host or cells: PA-TU-8902 human pancreatic cancer cells
Put plainly: RAS G12V degradation activity, Cell ELISA, PA-TU-8902. The format is cell-based. The note with it: PA-TU-8902 cells, 24 hours; for DC50: 100% = Example compound 17 at 1 μM, read-out: DC50 (RAS G12V 50% degradation value). On the procedure:
Test Example 1-1: Evaluation of RAS G12V Degradation Activity on Human KRAS G12V Mutant-Positive Pancreatic Cancer Line PA-TU-8902
The RAS G12V degradation activities of subject compounds were evaluated by measuring the expression levels of RAS G12V by a Cell ELISA method.
PA-TU-8902 cells (DSMZ, ACC 179) were seeded at 36 μL per well on a 384-well plate (from Greiner bio-one) to give 1.5×10^4 cells per well. As for the cell culture conditions, DMEM medium (from Sigma-Aldrich) containing 10% fetal bovine serum (from Cytiva) was used in the presence of 5% CO2 at 37° C.
The next day, the subject compounds (10 points having final concentrations in the range of 3 μM to 0.1 nM), Example compound 17 of a final concentration of 1 μM as a positive control and dimethyl sulfoxide (DMSO), which was the solvent for the subject compounds, as a negative control were diluted 100-fold with a fresh medium and were each added at 4 μL per well, followed by culturing for 24 hours.
The next day, the culture supernatant was removed, and a 4% paraformaldehyde phosphate buffer solution (from FUJIFILM Wako) was added at 20 μL per well. The plate was allowed to stand for 30 minutes at room temperature to thus immobilize the cells. Then, the supernatant was removed, and 0.1% Triton X-100 (from Amersham Biosciences)-containing Phosphate buffered saline (PBS) was added at 20 μL per well. After allowing the plate to stand at room temperature for 10 minutes, the supernatant was removed, and the wells were washed twice in total by adding PBS at 25 μL per well and removing the supernatant. The washing operations below were performed in the same manner. Next, the supernatant was removed, and 0.5% sodium dodecyl sulfate (SDS; from ThermoFisher Scientific)-containing PBS was added at 20 μL per well. After allowing the plate to stand at room temperature for 10 minutes, the plate was centrifuged to remove the supernatant. After washing with PBS, the supernatant was removed by centrifugation, and a blocking solution (PVDF Blocking Reagent for Can Get Signal; from TOYOBO) was added at 20 μL per well. After allowing the plate to stand for 30 minutes at room temperature, the supernatant was removed by centrifugation, and a solution obtained by diluting an anti-Ras (G12V Mutant Specific) antibody (Ras (G12V Mutant Specific) (D2H12) Rabbit mAb; from Cell Signaling Technology; 500-fold dilution) and an anti-3-actin antibody (Anti-beta Actin antibody; from Abcam; 5,000-fold dilution) with Can Get Signal Solution 2 (from TOYOBO) was added at 15 μL per well as primary antibodies. The plate was allowed to stand overnight at 4° C.
(§1) The next day, the supernatant was removed by centrifugation, and the plate was washed with PBS. The supernatant was removed by centrifugation, and a solution obtained by diluting an anti-rabbit IgG antibody (IRDye 800CW Goat anti-Rabbit IgG; from LI-COR Biosciences) and an anti-mouse IgG antibody (IRDye 680RD Donkey anti-Mouse IgG; from LI-COR Biosciences) 1,000-fold with Can Get Signal Solution 2 was added at 15 μL per well as secondary antibodies. After allowing the plate to stand at room temperature for an hour, the supernatant was removed by centrifugation, and the plate was washed with PBS. After removing the supernatant, the plate was dried as it was with air at room temperature for two hours or more, and the 700-nm and 800-nm fluorescent signals were measured with Aerius (from LI-COR Biosciences).
With the RAS G12V signaling value at the time of addition of DMSO corrected with the signaling value of 3-actin taken as 0% and with the RAS G12V signaling value at the time of addition of Example compound 17 of a final concentration of 1 μM taken as 100%, the RAS G12V degradation rates were calculated. The 50% degradation values (DC50) were calculated by Sigmoid-Emax model nonlinear regression analysis.
On the technique in general: ELISA stands for enzyme-linked immunosorbent assay.

The next assay concerns the target T2, RAS G12D (Homo sapiens, UniProt P01116, G12D).
T2 construct: host or cells: AsPC-1 human pancreatic cancer cells
As to the kind of experiment: RAS G12D degradation activity, Cell ELISA, AsPC-1. In kind it is cell-based. To be noted: AsPC-1 cells, 24 hours; read-out: DC50 (RAS G12D 50% degradation value). On the procedure: Test Example 1-2: Evaluation of RAS G12D Degradation Activity on Human KRAS G12D Mutant-Positive Pancreatic Cancer Line AsPC-1
The RAS G12D degradation activities of subject compounds were evaluated in the same manner as in Test Example 1-1 by measuring the expression levels of RAS G12D by a Cell ELISA method.
AsPC-1 cells (ATCC, CRL-1682) were seeded at 36 μL per well on a 384-well plate to give 2.0×10^4 cells per well. As for the cell culture conditions, RPMI-1640 medium (from Sigma-Aldrich) containing 10% fetal bovine serum was used in the presence of 5% CO2 at 37° C.
The next day, the subject compounds (10 points having final concentrations in the range of 3 μM to 0.1 nM) and DMSO, which was the solvent for the subject compounds, as a negative control were diluted 100-fold with a fresh medium and were each added at 4 μL per well, followed by culturing for 24 hours.
The next day, the procedures from the immobilization of the cells to before the addition of the blocking solution were performed by the same methods as in Test Example 1-1. A blocking solution (Intercept Blocking Buffer; from LI-COR Biosciences) was added at 20 μL per well. After allowing the plate to stand for 30 minutes at room temperature, the supernatant was removed by centrifugation. A solution obtained by diluting an anti-R-actin antibody (1,000-fold dilution) with the blocking solution was added to the wells of the positive control as a primary antibody, and a solution obtained by diluting an anti-Ras (G12D Mutant Specific) antibody (Ras (G12D Mutant Specific) (D8H7) Rabbit mAb; from Cell Signaling Technology; 1,000-fold dilution) and an anti-3-actin antibody (1,000-fold dilution) with the blocking solution was added to the other wells as primary antibodies, each at 15 μL per well. The plate was allowed to stand overnight at 4° C.
as §1, with “antibody” for “antibody (IRDye 800CW Goat anti-Rabbit IgG; from LI-COR Biosciences)”, “antibody” for “antibody (IRDye 680RD Donkey anti-Mouse IgG; from LI-COR Biosciences)”, “the blocking solution” for “Can Get Signal Solution 2”, “Aerius.” for “Aerius (from LI-COR Biosciences).”
With the RAS G12D signaling value at the time of addition of DMSO corrected with the signaling value of β-actin taken as 0% and with the RAS G12D signaling value under the conditions of staining with the anti-β-actin antibody alone taken as 100%, the RAS G12D degradation rates were calculated. The 50% degradation values (DC50) were calculated by Sigmoid-Emax model nonlinear regression analysis.

Each structure is given as a SMILES string.

T1 sequence (P01116 1-188 isoform P01116-2 G12V): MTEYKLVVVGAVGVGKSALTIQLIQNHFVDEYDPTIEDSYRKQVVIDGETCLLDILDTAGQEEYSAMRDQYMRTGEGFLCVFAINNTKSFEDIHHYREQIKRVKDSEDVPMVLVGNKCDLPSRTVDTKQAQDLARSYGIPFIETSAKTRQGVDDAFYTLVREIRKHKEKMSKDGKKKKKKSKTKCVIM
T2 sequence (P01116 1-188 isoform P01116-2 G12D): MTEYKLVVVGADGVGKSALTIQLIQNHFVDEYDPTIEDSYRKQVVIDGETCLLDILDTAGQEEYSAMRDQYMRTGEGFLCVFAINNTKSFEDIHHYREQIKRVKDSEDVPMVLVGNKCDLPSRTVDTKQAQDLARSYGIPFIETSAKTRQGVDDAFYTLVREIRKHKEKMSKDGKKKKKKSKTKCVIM

In general, DC50 refers to the midpoint of the concentration-degradation curve. In the case of `CNCCNC(=O)N1CC(Oc2nc(OC[C@H](C)OC)nc3c(OCc4ccc(-c5cn([C@H](C(=O)N6C[C@H](O)C[C@H]6C(=O)N[C@@H](CO)c6ccc(-c7scnc7C)cc6)C(C)C)nn5)cc4)c(-c4c(C)c(F)cc5[nH]ncc45)c(C4CC4)cc23)C1` (atropisomer, axis not shown) [Example 18], the DC50 was 69 nM on RAS G12V and 26 nM at RAS G12D.

In the case of `COC(C)(C)COc1cc(OC2CN(C(=O)N3CC(CN(C)C)C3)C2)c2cc(C3CC3)c(-c3c(C)c(F)cc4[nH]ncc34)c(OCc3ccc(-c4cn([C@H](C(=O)N5C[C@H](O)C[C@H]5C(=O)N[C@@H](CO)c5ccc(-n6cncn6)cc5)C(C)C)nn4)cc3)c2n1` (atropisomer, axis not shown) [Example 9], the DC50 at RAS G12V turned out to be 21 nM; at RAS G12D, 5 nM.

`CO[C@@H](C)COc1nc(N(C)[C@H]2CCN(C(=O)NCCN(C)C)C2)c2cc(C3CC3)c(-c3c(C)c(F)cc4[nH]ncc34)c(OCc3ccc(-c4cn([C@H](C(=O)N5C[C@H](O)C[C@H]5C(=O)N[C@@H](CO)c5ccc(-c6scnc6C)cc5)C(C)C)nn4)cc3)c2n1` (atropisomer, axis not shown) [Example 19]: the results for the DC50 on RAS G12V and on RAS G12D were 26 nM and 4 nM, respectively.

For `CO[C@@H](C)COc1nc(OC2CN(C(=O)NCCN(C)C)C2)c2cc(C3CC3)c(-c3c(C)c(F)cc4[nH]ncc34)c(OCc3ccc(C(=O)N[C@H](C(=O)N4C[C@H](O)C[C@H]4C(=O)N[C@@H](CO)c4ccc(-c5scnc5C)cc4)C(C)C)cc3)c2n1` [Example 40, N-{4-[({(7M)-6-cyclopropyl-4-[(1-{[2-(dimethylamino)ethyl]carbamoyl}azetidin-3-yl)oxy]-7-(6-fluoro-5-methyl-1H-indazol-4-yl)-2-[(2S)-2-methoxypropoxy]quinazolin-8-yl}oxy)methyl]benzoyl}-L-valyl-(4R)-4-hydroxy-N-{(1R)-2-hydroxy-1-[4-(4-methyl-1,3-thiazol-5-yl)phenyl]ethyl}-L-prolinamide], the DC50 was 76 nM on RAS G12V and 47 nM at RAS G12D.

On to `CO[C@@H](C)COc1nc(NC2CN(C(=O)O[C@H]3C[C@@H](N(C)C)C3)C2)c2cc(C3CC3)c(-c3c(C)c(F)cc4[nH]ncc34)c(OCc3ccc(-c4cn([C@H](C(=O)N5C[C@H](O)C[C@H]5C(=O)N[C@@H](CO)c5ccc(-n6cncn6)cc5)C(C)C)nn4)cc3)c2n1` (atropisomer, axis not shown; (M)) [Example 2, (1s,3R)-3-(dimethylamino)cyclobutyl 3-({(7M)-6-cyclopropyl-7-(6-fluoro-5-methyl-1H-indazol-4-yl)-8-{[4-(1-{(2S)-1-[(2S,4R)-4-hydroxy-2({(1R)-2-hydroxy-1-[4-(1H-1,2,4-triazol-1-yl)phenyl]ethyl}carbamoyl)pyrrolidin-1-yl]-3-methyl-1-oxobutan-2-yl}-1H-1,2,3-triazol-4-yl)phenyl]methoxy}-2-[(2S)-2-methoxypropoxy]quinazolin-4-yl}amino)azetidine-1-carboxylate], for which the DC50 at RAS G12V is 18 nM; on RAS G12D, 5 nM.

As to `CO[C@@H](C)COc1nc(N[C@H]2C[C@H](OCCN(C)C)C2)c2cc(C3CC3)c(-c3c(C)c(F)cc4[nH]ncc34)c(OCc3ccc(-c4cn([C@H](C(=O)N5C[C@H](O)C[C@H]5C(=O)N[C@@H](CO)c5ccc(-c6scnc6C)cc5)C(C)C)nn4)cc3)c2n1` (atropisomer, axis not shown) [Example 23], the figures for the DC50 at RAS G12V and on RAS G12D were 112 nM and 1 nM, respectively. Also, the Dmax on RAS G12V (PaTu 8902, RAS G12V, read-out: Dmax (degradation rate at the concentration with highest degradation activity)) came out at 62%.

Consider `CO[C@@H](C)COc1nc(OC2CN(C(=O)NCCN(C)C)C2)c2cc(C3CC3)c(-c3c(C)c(F)cc4[nH]ncc34)c(OCc3ccc(-c4cn([C@H](C(=O)N5C[C@H](O)C[C@H]5C(=O)N[C@@H](CO)c5ccc(-c6scnc6C)cc5)C(C)C)nn4)cc3)c2n1` (atropisomer, axis not shown) [Example 17], for which the figures for the DC50 at RAS G12V and on RAS G12D were 41 nM and 11 nM, respectively.

Turning to `CO[C@@H](C)COc1nc(N2CCOCC2)c2cc(C3CC3)c(-c3c(C)c(F)cc4[nH]ncc34)c(OCc3ccc(-c4cn([C@H](C(=O)N5C[C@H](O)C[C@H]5C(=O)N[C@@H](CO)c5ccc(-c6scnc6C)cc5)C(C)C)nn4)cc3)c2n1` (atropisomer, axis not shown) [Example 21], the figures for the DC50 on RAS G12V and at RAS G12D were 35 nM and 8 nM, respectively.

Take `Cc1ncsc1-c1ccc([C@H](CO)NC(=O)[C@@H]2C[C@@H](O)CN2C(=O)[C@H](C(C)C)n2cc(-c3ccc(COc4c(-c5c(C)c(F)cc6[nH]ncc56)c(C5CC5)cc5c(NC6CN(c7ncccn7)C6)nc(OC6CCOCC6)nc45)cc3)nn2)cc1` [Example 15, (4R)-1-[(2S)-2-{4-[4-({[(7M)-6-cyclopropyl-7-(6-fluoro-5-methyl-1H-indazol-4-yl)-2-[(oxan-4-yl)oxy]-4-{[1-(pyrimidin-2-yl)azetidin-3-yl]amino}quinazolin-8-yl]oxy}methyl)phenyl]-1H-1,2,3-triazol-1-yl}-3-methylbutanoyl]-4-hydroxy-N-{(1R)-2-hydroxy-1-[4-(4-methyl-1,3-thiazol-5-yl)phenyl]ethyl}-L-prolinamide]: the DC50 is 89 nM on RAS G12V and 146 nM at RAS G12D.

The values are drawn from patent US20260049072A1, “HETEROCYCLIC COMPOUND FOR INDUCING DEGRADATION OF MUTANT KRAS PROTEIN” (Astellas Pharma Inc., priority 2022, published 2026).
